For experiment [1], the system named is Zucker fa/fa Rat model of Dyslipidemia. The experiment in a line: Plasma triglyceride level in the Zucker fa/fa rat model of dyslipidemia. The class given is in vivo. As to conditions: Zucker rats, po qd, I-8 at 10, 30, 100 and 300 mg/kg; niacin/EPA 100/200 mg/kg; day 4 fed blood sample, FIG. 3. The procedure: Male Zucker rats (HsdHlr: Zucker-Lepr̂fa) between 8-10 weeks of age were purchased from Harlan and maintained on Purina Rodent Diet (5001) for the duration of the study. Animals were randomized and assigned to treatment arms based on body weight and plasma triglyceride (TG) levels (n=8). Inclusion criteria for the study include body weight >300 grams and fed TG levels in plasma >800 mg/dL. Dosing will be initiated on day 1 and continue through day 5. Dosing will be daily (qd) by oral gavage (po) for all treatment arms (Compound I-8 was administered orally at 4 different doses, 10, 30, 100 and 300 mg/kg; in addition, a combination of niacin/EPA in a ratio of 100/200 mg/kg was also employed). Body weights will be measured for all rats on days 1 through 5. On day 4, a blood sample (fed) will be collected from each rat, processed for plasma and stored at −80° C. Plasma triglyceride level was determined from commercial kits using standard protocols. […] Because compound I-8 was able to lower fed plasma triglyceride, it is useful to treat dyslipidemia as well as other diseases such as type I hyperlipoproteinemia and type 5 hyperlipoproteinemia.

For experiment [2], the system named is PCSK9. The experiment in a line: PCSK9 secretion assay in HepG2 cells (PCSK9 ELISA). The class given is cell-based. An outline of the steps: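 HepG2 cells in serum-free DMEM with compound added in FBS (ethanol-matched) and incubated 16 hours, in triplicate. Secreted PCSK9 in supernatant measured by ELISA (A450), with AlamarBlue viability check. IC50 obtained from at least 6 concentrations.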
In general terms: In an ELISA, binding on a coated surface is turned into a signal by an enzyme label.

The test system of experiment [3] is ApoE3Leiden mice. Put plainly: Plasma cholesterol and triglycerides in ApoE3Leiden mice on Western type diet, 2 and 4 weeks of treatment. The class given is in vivo. As to conditions: female APOE*3Leiden mice, WTD, I-8 0.75% w/w, atorvastatin 0.0015% w/w in diet. The procedure:
The study was conducted using female APOE*3Leiden mice (groups of each n=10) and one untreated reference control group on chow (n=5). To induce dyslipidemia, a high cholesterol Western type diet containing 1% cholesterol, 15% cacao butter, 40.5% sucrose and 1% corn oil (WTD) was fed to the mice for a total experimental period of 20 weeks (of which 4 weeks are a run-in period).
The dyslipidemic mice were grouped on the basis of plasma cholesterol at t=0 assayed in 4 h fasting blood. Mice with low cholesterol after the run-in period were excluded so that homogenous experimental groups were obtained. A group of reference mice (n=5) remained on a chow diet during the complete study period (normolipidemic reference mice).
This mix was then added to the master mix (containing the rest of the ingredients) and mixed thoroughly. The diet was frozen to −20° C. On the subsequent day, the diet was broken into small pellets (approx 5 g per piece) and freeze dried, and stored in vacuum sealed bags (approx 500 g) at −20° C. until use. The diets were refreshed daily and unused diet was discarded.
1) Body weight at −4, 0, 2, 4 weeks 2) Food intake (g/day/mouse) at 0, 2, 4 weeks (per cage) 3) Plasma total cholesterol at −4, 0, 2, 4 weeks (individually) 4) Plasma triglycerides at −4, 0, 2, 4 weeks (individually) 5) Lipoprotein profiles at 0 (pool of all animals) and 4 weeks (cholesterol distribution over VLDL, LDL and HDL-sized particles, analysis on group level).
EDTA plasma was collected in weeks −4, 0, 2 and 4 weeks. Plasma cholesterol, plasma triglyceride levels and lipoprotein profileswere assayed immediately in fresh plasma.

The subject of experiment [4] is ApoE*3 Leiden mice. The experiment in a line: Plasma lipids and liver weight of ApoE*3 Leiden mice on Western type diet, 16 weeks of treatment. Format: in vivo. The following applies: I-8 in WTD at 7.5 g/kg. As to the method:
The same experimental design used in example 6 was used. Two treatment groups were used (n=15). The control animals were kept on a Western type diet (WTD) consisting of 1% cholesterol, 15% cacao butter, 40.5% sucrose, and 1% corn oil. For the treatment group, compound I-8 was administered in the above WTD at a ratio of 7.5 g/kg. Animals were maintained on the WTD or treatment group for 16 weeks. At the conclusion of the study, plasma cholesterol and triglyceride levels were recorded, as well as the weight of the liver. There was a significant decrease in plasma cholesterol, triglyceride levels as well as liver weight in the treatment group. After 16 weeks of treatment, the cholesterol level of the treatment group was 420 mg/dL, compared with a level of 750 mg/dL for the control group; the triglyceride level was 110 mg/dL, compared with a level of 160 mg/dL for the control group.

One may read the IC50 as the concentration needed to halve the response being measured. Read a high IC50 as weaker potency. As to `CC/C=C\C/C=C\C/C=C\C/C=C\C/C=C\CCCC(=O)NCCNC(=O)c1cccnc1` [Compound I-8, N-(2-(5Z,8Z,11Z,14Z,17Z)-eicosa-5,8,11,14,17-pentaenamidoethyl)nicotinamide], the “fed plasma triglyceride level” value in experiment [1] is listed as “dose dependent decrease”. In addition, the “PCSK9 levels in HepG2 cells incubated with atorvastatin” value in experiment [2] (HepG2 cells incubated with 10 μM of atorvastatin along with the test article, FIG. 2) was “decrease PCSK9 levels in a dose response manner”. For the same compound, the IC50 in experiment [2] (HepG2 cells, 16 hours incubation, at least 6 concentrations) was less than 25 µM. The “lowering of PCSK9” value in experiment [2] (HepG2 cells, at 25 and 50 μM, FIG. 1) is on record as “significant lowering of PCSK9”. For the same compound, the “plasma cholesterol at t=2 weeks” value in experiment [3] (2 weeks of treatment, FIG. 4) is “statistically significant reduction”. In experiment [3] (4 weeks, FIG. 5), the “plasma cholesterol after 4 weeks of treatment” value is given as “Comparable level of cholesterol reduction”. Also, the “plasma triglyceride levels after 4 weeks of treatment” value in experiment [3] (4 weeks, FIG. 6) is on record as “significant reduction”. Besides, in experiment [4] (FIG. 7), the liver weight result was “statistically significant drop”. Besides, in experiment [4] (control group 160 mg/dL), the “triglyceride level after 16 weeks of treatment” value stood at 110 mg/dL. In addition, the “cholesterol level after 16 weeks of treatment” value in experiment [4] (control group 750 mg/dL) came out at 420 mg/dL.

For the origin of these results see patent US20140093513A1, “METHODS OF LOWERING PROPROTEIN CONVERSATE SUBTILISIN/KEXIN TYPE 9 (PCSK9)” (Catabasis Pharmaceuticals, Inc., priority 2012, published 2014).
